Measured values taken from ChEMBL document CHEMBL3856189, “Synthesis of novel diterpenoid analogs with in-vivo antitumor activity” (Eur J Med Chem, 2016).

test system: PC-3; test: Selectivity index, ratio of IC50 for HAF cells to IC50 for human PC3 cells; type: functional; settings: not given

Q: Which “Ratio IC50” value does the source give for `COc1cc2c(cc1C(=O)Nc1ccccc1)CC[C@H]1C(C)(C)[C@@H](O)CC[C@]21C` here?
A: 1.9

test system: not listed separately; test: Antiproliferative activity against human MDA-MB-231 cells after 96 hrs by SRB assay; type: functional, cell-based; settings: MDA-MB-231, 96 h

Q: For `COc1cc2c(cc1C(=O)Nc1ccccc1)CC[C@H]1C(C)(C)[C@@H](O)CC[C@]21C`, which IC50 is on record?
A: 4.49 µM

test system: T47D; test: Selectivity index, ratio of IC50 for HAF cells to IC50 for human T47D cells; type: functional; settings: not given

Q: With `COc1cc2c(cc1C(=O)Nc1ccccc1)CC[C@H]1C(C)(C)[C@@H](O)CC[C@]21C` as the compound, how does the “Ratio IC50” value read?
A: 1.9

test system: not listed separately; test: Antiproliferative activity against human PC3 cells after 96 hrs by SRB assay; type: functional, cell-based; settings: PC-3, 96 h

Q: For `COc1cc2c(cc1C(=O)Nc1ccccc1)CC[C@H]1C(C)(C)[C@@H](O)CC[C@]21C`, which IC50 is on record?
A: 2510 nM

test system: not listed separately; test: Antiproliferative activity against human HT-29 cells after 96 hrs by SRB assay; type: functional, cell-based; settings: HT-29, 96 h

Q: For `COc1cc2c(cc1C(=O)Nc1ccccc1)CC[C@H]1C(C)(C)[C@@H](O)CC[C@]21C`, which IC50 is on record?
A: 2450 nM

test system: not listed separately; test: Selectivity index, ratio of IC50 for HAF cells to IC50 for human MDA-MB-231 cells; type: functional; settings: not given

Q: Which “Ratio IC50” value does the source give for `COc1cc2c(cc1C(=O)Nc1ccccc1)CC[C@H]1C(C)(C)[C@@H](O)CC[C@]21C` here?
A: 1.9

test system: T47D; test: Induction of apoptosis in human T47D cells assessed as early apoptotic cells at 20 uM after 48 hrs by Annexin V-FITC/propidium iodide staining based flow cytometry (reference value: 3.79 %); type: functional; settings: not given

Q: Which Activity does the source give for `COc1cc2c(cc1C(=O)Nc1ccccc1)CC[C@H]1C(C)(C)[C@@H](O)CC[C@]21C` here?
A: 2.25%

test system: not listed separately; test: Antiproliferative activity against human MCF7 cells after 96 hrs by SRB assay; type: functional, cell-based; settings: MCF7, 96 h

Q: For `COc1cc2c(cc1C(=O)Nc1ccccc1)CC[C@H]1C(C)(C)[C@@H](O)CC[C@]21C`, which IC50 is on record?
A: 4.8 µM

test system: not listed separately; test: (§1) Antimigratory activity in human T47D cells assessed as inhibition of cell migration after 12 hrs by crystal violet staining based transwell migration assay; type: functional; settings: not given

Q: With `COc1cc2c(cc1C(=O)Nc1ccccc1)CC[C@H]1C(C)(C)[C@@H](O)CC[C@]21C` as the compound, how does the EC50 read?
A: 37.7 µM

test system: T47D; test: as §1; type: functional; settings: not given

Q: Which Activity does the source give for `COc1cc2c(cc1C(=O)Nc1ccccc1)CC[C@H]1C(C)(C)[C@@H](O)CC[C@]21C` here?
A: Dose-dependent effect

test system: HL-60; test: Selectivity index, ratio of IC50 for HAF cells to IC50 for human HL60 cells; type: functional; settings: not given

Q: With `COc1cc2c(cc1C(=O)Nc1ccccc1)CC[C@H]1C(C)(C)[C@@H](O)CC[C@]21C` as the compound, how does the “Ratio IC50” value read?
A: 1.9

test system: not listed separately; test: (§2) Inhibition of colony formation in human T47D cells after 7 days by crystal violet staining based assay; type: functional, cell-based; settings: 168 h

Q: For `COc1cc2c(cc1C(=O)Nc1ccccc1)CC[C@H]1C(C)(C)[C@@H](O)CC[C@]21C`, which EC50 is on record?
A: 987 nM

test system: T47D; test: as §2; type: functional, cell-based; settings: not given

Q: With `COc1cc2c(cc1C(=O)Nc1ccccc1)CC[C@H]1C(C)(C)[C@@H](O)CC[C@]21C` as the compound, how does the Activity read?
A: Dose-dependent effect

test system: not listed separately; test: Antiproliferative activity against human DU145 cells after 96 hrs by SRB assay; type: functional, cell-based; settings: DU-145, 96 h

Q: Which IC50 does the source give for `COc1cc2c(cc1C(=O)Nc1ccccc1)CC[C@H]1C(C)(C)[C@@H](O)CC[C@]21C` here?
A: 10.7 µM

test system: not listed separately; test: Antiproliferative activity against human HL60 cells after 96 hrs by SRB assay; type: functional, cell-based; settings: HL-60, 96 h

Q: Which IC50 does the source give for `COc1cc2c(cc1C(=O)Nc1ccccc1)CC[C@H]1C(C)(C)[C@@H](O)CC[C@]21C` here?
A: 12.4 µM

test system: not listed separately; test: Antiproliferative activity against HAF cells after 96 hrs by SRB assay; type: cell-based; settings: Homo sapiens

Q: With `COc1cc2c(cc1C(=O)Nc1ccccc1)CC[C@H]1C(C)(C)[C@@H](O)CC[C@]21C` as the compound, how does the IC50 read?
A: 9.46 µM

test system: T47D; test: Induction of apoptosis in human T47D cells assessed as late apoptotic cells at 20 uM after 48 hrs by Annexin V-FITC/propidium iodide staining based flow cytometry (reference value: 3.04 %); type: functional; settings: not given

Q: For `COc1cc2c(cc1C(=O)Nc1ccccc1)CC[C@H]1C(C)(C)[C@@H](O)CC[C@]21C`, which Activity is on record?
A: 3.54%

test system: T47D; test: Induction of apoptosis in human T47D cells assessed as early apoptotic cells at 80 uM after 48 hrs by Annexin V-FITC/propidium iodide staining based flow cytometry (reference value: 3.79 %); type: functional; settings: not given

Q: Which Activity does the source give for `COc1cc2c(cc1C(=O)Nc1ccccc1)CC[C@H]1C(C)(C)[C@@H](O)CC[C@]21C` here?
A: 4.7%

test system: DU-145; test: Selectivity index, ratio of IC50 for HAF cells to IC50 for human DU145 cells; type: functional; settings: not given

Q: With `COc1cc2c(cc1C(=O)Nc1ccccc1)CC[C@H]1C(C)(C)[C@@H](O)CC[C@]21C` as the compound, how does the “Ratio IC50” value read?
A: 1.9

test system: not listed separately; test: Selectivity index, ratio of IC50 for HAF cells to IC50 for human HT-29 cells; type: functional; settings: not given

Q: For `COc1cc2c(cc1C(=O)Nc1ccccc1)CC[C@H]1C(C)(C)[C@@H](O)CC[C@]21C`, which “Ratio IC50” value is on record?
A: 1.9

test system: T47D; test: Induction of apoptosis in human T47D cells assessed as late apoptotic cells at 40 uM after 48 hrs by Annexin V-FITC/propidium iodide staining based flow cytometry (reference value: 3.04 %); type: functional; settings: not given

Q: For `COc1cc2c(cc1C(=O)Nc1ccccc1)CC[C@H]1C(C)(C)[C@@H](O)CC[C@]21C`, which Activity is on record?
A: 6.97%

test system: T47D; test: Induction of apoptosis in human T47D cells assessed as late apoptotic cells at 80 uM after 48 hrs by Annexin V-FITC/propidium iodide staining based flow cytometry (reference value: 3.04 %); type: functional; settings: not given

Q: For `COc1cc2c(cc1C(=O)Nc1ccccc1)CC[C@H]1C(C)(C)[C@@H](O)CC[C@]21C`, which Activity is on record?
A: 7.72%

test system: HCT-116; test: Selectivity index, ratio of IC50 for HAF cells to IC50 for human HCT116 cells; type: functional; settings: not given

Q: With `COc1cc2c(cc1C(=O)Nc1ccccc1)CC[C@H]1C(C)(C)[C@@H](O)CC[C@]21C` as the compound, how does the “Ratio IC50” value read?
A: 1.9

test system: not listed separately; test: Antiproliferative activity against human HCT116 cells after 96 hrs by SRB assay; type: functional, cell-based; settings: HCT-116, 96 h

Q: Which IC50 does the source give for `COc1cc2c(cc1C(=O)Nc1ccccc1)CC[C@H]1C(C)(C)[C@@H](O)CC[C@]21C` here?
A: 1540 nM

test system: MCF7; test: Selectivity index, ratio of IC50 for HAF cells to IC50 for human MCF7 cells; type: functional; settings: not given

Q: Which “Ratio IC50” value does the source give for `COc1cc2c(cc1C(=O)Nc1ccccc1)CC[C@H]1C(C)(C)[C@@H](O)CC[C@]21C` here?
A: 1.9

test system: T47D; test: Induction of apoptosis in human T47D cells assessed as early apoptotic cells at 40 uM after 48 hrs by Annexin V-FITC/propidium iodide staining based flow cytometry (reference value: 3.79 %); type: functional; settings: not given

Q: For `COc1cc2c(cc1C(=O)Nc1ccccc1)CC[C@H]1C(C)(C)[C@@H](O)CC[C@]21C`, which Activity is on record?
A: 3.33%

test system: not listed separately; test: Antiproliferative activity against human T47D cells after 96 hrs by SRB assay; type: functional, cell-based; settings: not given

Q: For `COc1cc2c(cc1C(=O)Nc1ccccc1)CC[C@H]1C(C)(C)[C@@H](O)CC[C@]21C`, which IC50 is on record?
A: 840 nM
